Test results from patent US7884127B2, “Inhibitors of cyclin dependent kinases and their use” (Pirimal Life Sciences Ltd., priority 2002, dated 2011).

| melting point [°C] | Compound |
| --- | --- |
| 295 to 297 | CN1CC[C@@H](c2c(O)cc(O)c3c(=O)cc(-c4ccccc4Cl)oc23)[C@@H]1C(=O)O (racemic) [Example 144, (±)-trans-3-[2-(2-Chloro-phenyl)-5,7-dihydroxy-4-oxo-4H-chromen-8-yl]-1-methyl-pyrrolidine-2-carboxylic acid] |
| 205 to 206 | CN1CC[C@@H](c2c(O)cc(O)c3c(=O)cc(-c4ccccc4Cl)oc23)[C@@H]1CS (racemic) [Example 115, (±)-trans-2-(2-Chloro-phenyl)-5,7-dihydroxy-8-(2-mercaptomethyl-1-methyl-pyrrolidin-3-yl)-chromen-4-one] |
| 253 to 254 | CN1CC[C@@H](c2c(O)cc(O)c3c(=O)cc(-c4cc(F)ccc4Cl)oc23)[C@@H]1CO (racemic) [Example 23, (±)-trans-2-(2-Chloro-5-fluoro-phenyl)-5,7-dihydroxy-8-(2-hydroxymethyl-1-methyl-pyrrolidin-3-yl)-chromen-4-one] |
| 233 to 235 | CN1CC[C@@H](c2c(O)cc(O)c3c(=O)cc(-c4ccccc4I)oc23)[C@@H]1CO [Example 19, (+)-trans-5,7-Dihydroxy-8-(2-hydroxymethyl-1-methyl-pyrrolidin-3-yl)-2-(2-iodo-phenyl)-chromen-4-one] |
| 94 to 96 | CCCN1CC[C@@H](c2c(O)cc(O)c3c(=O)cc(-c4ccccc4Cl)oc23)[C@@H]1CO (racemic) [Example 132, (±)-trans-2-(2-Chloro-phenyl)-5,7-dihydroxy-8-(2-hydroxymethyl-1-propyl-pyrrolidin-3-yl)-chromen-4-one] |
| 233 to 235 | CN1CC[C@@H](c2c(O)cc(O)c3c(=O)cc(-c4cc(Cl)ccc4Br)oc23)[C@@H]1CO [Example 140, (+)-trans-2-(2-Bromo-5-chloro-phenyl)-5,7-dihydroxy-8-(2-hydroxymethyl-1-methyl-pyrrolidin-3-yl)-chromen-4-one] |
| 186 | CN1CC[C@@H](c2c(O)cc(O)c3c(=O)cc(-c4ccc([N+](=O)[O-])cc4Br)oc23)[C@@H]1CO [Example 42, (+)-trans-2-(2-Bromo-4-nitro-phenyl)-5,7-dihydroxy-8-(2-hydroxymethyl-1-methyl-pyrrolidin-3-yl)-chromen-4-one] |
| 125 to 127 | CN1CC[C@@H](c2c(O)cc(O)c3c(=O)cc(-c4cccnc4Cl)oc23)[C@@H]1CO [Example 90, (+)-trans-2-(2-Chloro-pyridin-3-yl)-5,7-dihydroxy-8-(2-hydroxymethyl-1-methyl-pyrrolidin-3-yl)-chromen-4-one] |
| 218 to 220 | CN1CC[C@@H](c2c(O)cc(O)c3c(=O)cc(-c4cccs4)oc23)[C@@H]1CO [Example 68, (+)-trans-5,7-Dihydroxy-8-(2-hydroxymethyl-1-methyl-pyrrolidin-3-yl)-2-thiophen-2-yl-chromen-4-one] |
| 275 to 277 | CN1CC[C@@H](c2c(O)cc(O)c3c(=O)cc(-c4ccc([N+](=O)[O-])cc4)oc23)[C@@H]1CO [Example 92, (+)-trans-5,7-Dihydroxy-8-(2-hydroxymethyl-1-methyl-pyrrolidin-3-yl)-2-(4-nitro-phenyl)-chromen-4-one] |
| 189 to 190 | CN1CC[C@@H](c2c(O)cc(O)c3c(=O)cc(-c4cc(O)ccc4Cl)oc23)[C@@H]1CO.Cl |
| > 300 | CN1CC[C@@H](c2c(O)cc(O)c3c(=O)cc(-c4ccc(O)cc4Cl)oc23)[C@@H]1CO (racemic) [Example 104, (±)-trans-2-(2-Chloro-4-hydroxy-phenyl)-5,7-dihydroxy-8-(2-hydroxymethyl-1-methyl-pyrrolidin-3-yl)-chromen-4-one] |
| 192 to 193 | CN1CC[C@@H](c2c(O)cc(O)c3c(=O)cc(-c4cc(F)ccc4Cl)oc23)[C@@H]1CO.CS(=O)(=O)O (racemic) [Example 25, (±)-trans-2-(2-Chloro-5-fluoro-phenyl)-5,7-dihydroxy-8-(2-hydroxymethyl-1-methyl-pyrrolidin-3-yl)-chromen-4-one methane sulfonate] |
| 214 to 216 | COc1cc(OC)c2c(=O)cc(-c3ccc(C#N)cc3)oc2c1[C@@H]1CCN(C)[C@H]1CO (racemic) [Example 81, (±)-trans-4-[8-(2-Hydroxymethyl-1-methyl-pyrrolidin-3-yl)-5,7-dimethoxy-4-oxo-4H-chromen-2-yl]-benzonitrile] |
| 237 to 239 | CN1CC[C@@H](c2c(O)cc(O)c3c(=O)cc(-c4ccc(C#N)cc4Cl)oc23)[C@@H]1CO [Example 98, (+)-trans-3-Chloro-4-[5,7-dihydroxy-8-(2-hydroxymethyl-1-methyl-pyrrolidin-3-yl)-4-oxo-4H-chromen-2-yl]-benzonitrile] |
| 221 to 223 | CN1CC[C@@H](c2c(O)cc(O)c3c(=O)cc(-c4cccc(F)c4Cl)oc23)[C@@H]1CO [Example 134, (+)-trans-2-(2-Chloro-3-fluoro-phenyl)-5,7-dihydroxy-8-(2-hydroxymethyl-1-methyl-pyrrolidin-3-yl)-chromen-4-one] |

| melting point [°C] | Compound |
| --- | --- |
| 172 to 174 | CN1CC[C@@H](c2c(O)cc(O)c3c(=O)cc(-c4ccc(N)cc4)oc23)[C@@H]1CO [Example 94, (+)-trans-2-(4-Amino-phenyl)-5,7-dihydroxy-8-(2-hydroxymethyl-1-methyl-pyrrolidin-3-yl)-chromen-4-one] |
| 155 to 156 | CN1CC[C@@H](c2c(O)cc(O)c3c(=O)cc(-c4ccc(Br)cc4Cl)oc23)[C@@H]1CO [Example 100, (+)-trans-2-(4-Bromo-2-chloro-phenyl)-5,7-dihydroxy-8-(2-hydroxymethyl-1-methyl-pyrrolidin-3-yl)-chromen-4-one] |
| 238 | CN1CC[C@@H](c2c(O)cc(O)c3c(=O)cc(-c4ccc(C(F)(F)F)cc4)oc23)[C@@H]1CO (racemic) [Example 63, (±)-trans-5,7-Dihydroxy-8-(2-hydroxymethyl-1-methyl-pyrrolidin-3-yl)-2-(4-trifluoromethyl-phenyl)-chromen-4-one] |
| 208 to 210 | CNc1ccc(Cl)c(-c2cc(=O)c3c(O)cc(O)c([C@@H]4CCN(C)[C@H]4CO)c3o2)c1 (racemic) [Example 102, (±)-trans-2-(2-Chloro-5-methylamino-phenyl)-5,7-dihydroxy-8-(2-hydroxymethyl-1-methyl-pyrrolidin-3-yl)-chromen-4-one] |
| 235 to 237 | CN1CC[C@@H](c2c(O)cc(O)c3c(=O)cc(-c4ccc(C(F)(F)F)cc4)oc23)[C@@H]1CO [Example 65, (+)-trans-5,7-Dihydroxy-8-(2-hydroxymethyl-1-methyl-pyrrolidin-3-yl)-2-(4-trifluoromethyl-phenyl)-chromen-4-one] |
| 218 to 219 | CN1CC[C@@H](c2c(O)cc(O)c3c(=O)cc(-c4ccccc4Cl)oc23)[C@@H]1CN (racemic) [Example 109, (±)-trans-8-(2-Aminomethyl-1-methyl-pyrrolidin-3-yl)-2-(2-chloro-phenyl)-5,7-dihydroxy-chromen-4-one] |
| 212 to 215 | CN1CC[C@@H](c2c(O)cc(O)c3c(=O)cc(-c4ccccc4)oc23)[C@@H]1CO [Example 57, (+)-trans-5,7-Dihydroxy-8-(2-hydroxymethyl-1-methyl-pyrrolidin-3-yl)-2-phenyl-chromen-4-one] |
| 114 to 115 | COc1cc(OC)c2c(=O)cc(-c3ccc(C(F)(F)F)cc3)oc2c1[C@@H]1CCN(C)[C@H]1CO (racemic) [Example 62, (±)-trans-8-(2-Hydroxymethyl-1-methyl-pyrrolidin-3-yl)-5,7-dimethoxy-2-(4-trifluoromethyl-phenyl)-chromen-4-one] |
| 237 to 239 | CN1CC[C@@H](c2c(O)cc(O)c3c(=O)cc(-c4cccc(F)c4Br)oc23)[C@@H]1CO [Example 136, (+)-trans-2-(2-Bromo-3-fluoro-phenyl)-5,7-dihydroxy-8-(2-hydroxymethyl-1-methyl-pyrrolidin-3-yl)-chromen-4-one] |
| 212 to 213 | CN1CC[C@@H](c2c(O)cc(O)c3c(=O)cc(-c4ccccc4O)oc23)[C@@H]1CO (racemic) [Example 96, (±)-trans-5,7-Dihydroxy-8-(2-hydroxymethyl-1-methyl-pyrrolidin-3-yl)-2-(2-hydroxy-phenyl)-chromen-4-one] |
| 206 to 208 | Cc1ccc(Cl)c(-c2cc(=O)c3c(O)cc(O)c([C@@H]4CCN(C)[C@H]4CO)c3o2)c1 [Example 38, (+)-trans-2-(2-Chloro-5-methyl-phenyl)-5,7-dihydroxy-8-(2-hydroxymethyl-1-methyl-pyrrolidin-3-yl)-chromen-4-one] |
| 249 to 250 | CN1CC[C@@H](c2c(O)cc(O)c3c(=O)cc(-c4ccccc4Cl)oc23)[C@@H]1Cn1ccnc1 (racemic) [Example 113, (±)-trans-2-(2-Chloro-phenyl)-5,7-dihydroxy-8-(2-imidazol-1-ylmethyl-1-methyl-pyrrolidin-3-yl)-chromen-4-one] |
| 145 to 147 | Cc1cc(C#N)ccc1-c1cc(=O)c2c(O)cc(O)c([C@@H]3CCN(C)[C@H]3CO)c2o1 [Example 60, (+)-trans-4-[5,7-Dihydroxy-8-(2-hydroxymethyl-1-methyl-pyrrolidin-3-yl)-4-oxo-4H-chromen-2-yl]-3-methyl-benzonitrile] |
| 218 to 220 | CN1CC[C@@H](c2c(O)cc(O)c3c(=O)cc(-c4cccc(F)c4)oc23)[C@@H]1CO [Example 76, (+)-trans-2-(3-Fluoro-phenyl)-5,7-dihydroxy-8-(2-hydroxymethyl-1-methyl-pyrrolidin-3-yl)-chromen-4-one] |
| 165 to 167 | COc1cc(OC)c2c(=O)cc(-c3ccccc3Cl)oc2c1[C@@H]1CCN(C)[C@H]1C(=O)O (racemic) [Example 143, (±)-trans-3-[2-(2-Chloro-phenyl)-5,7-dimethoxy-4-oxo-4H-chromen-8-yl]-1-methyl-pyrrolidine-2-carboxylic acid] |
| 107 to 108 | CN1CC[C@@H](c2c(O)cc(O)c3c(=O)cc(-c4ccccc4Cl)oc23)[C@@H]1CC#N (racemic) [Example 111, (±)-trans-{3-[2-(2-Chloro-phenyl)-5,7-dihydroxy-4-oxo-4H-chromen-8-yl]-1-methyl-pyrrolidin-2-yl}-acetonitrile] |
